US12195467B2, “Compound having TrkA inhibitory activity and pharmaceutical composition, for preventing or alleviating pain, containing same as active ingredient” (JBKLAB CO., LTD., priority 2018, dated 2025)

How the values were obtained:
TrkA = biological target: T1, TrkA (Homo sapiens, UniProt P04629); assay: TrkA inhibitory activity, CycLex TrkA kinase assay/inhibitor screening kit; assay type: biochemical; settings: for inhibition at 1 µM: compound 1 μM, read-out: % inhibition rate (based on 1 μM)
T1 construct: purchased MBL International (CycLex) CY-1091
Method: The TrkA inhibitory activity of the compounds was evaluated using CycLex® TrkA kinase assay/inhibitor screening kit of MBL International (Cat No. CY-1091). The test was carried out according to the analysis method provided by the manufacturer. The test method is as follows.
1. 1× wash buffer was prepared by diluting 10× wash buffer in ddH2O.
2. 20×ATP solution (1.25 mM) was prepared by adding 1.6 mL of distilled water to the tube containing ATP dissolved in NA2 salt and freeze-dried.
4. A working solution mixture and a solution of the appropriate concentration of the example compound to evaluate the activity of the example compound were prepared and dispensed into a 96-well plate as shown in table below.
5. After dispensing the solutions into a 96-well plate, the plate was incubated at 30° C. for 30 minutes.
6. After incubation of the plate at 30° C. for 30 minutes, 200 μL of 1× wash buffer was added into each well of the plate, followed by washing. This process was repeated 5 times.
7. After washing the plate, 100 μL of HRP conjugated detection antibody (PX-39) was added into each well of the plate, followed by reaction at room temperature for 60 minutes.
8. Upon completion of the reaction, 200 μL of 1× wash buffer was added into each well of the plate, followed by washing. This process was repeated 5 times.
9. After washing the plate, 100 μL of substrate reagent containing chromogenic substrate and tetra-methylbenzidine (TMB) was added into each well of the plate, followed by incubation at room temperature for 5-15 minutes.
10. Upon completion of the reaction, 100 μL of stop solution (1 N H2SO4) was added into each well of the plate, followed by measuring OD450 within 30 minutes.

TrkB = biological target: T2, TrkB (Homo sapiens, UniProt Q16620); assay: PathHunter eXpress TrkB functional assay kit (U2OS cells, agonist BDNF); assay type: cell-based; settings: compound 1 μM, read-out: TrkB % inhibition rate (based on 1 μM)
T2 construct: host or cells: U2OS
Method: (§1) The inhibitory activity of the example compounds against TrkB and TrkC was evaluated using PathHunter® eXpress TrkB or TrkC functional assay kit (Product Code: 93-0463E3 and 93-0464E3) of DiscoverX. The test was carried out according to the analysis method provided by the manufacturer. The test was carried out as follows over 2 or 3 days depending on the conditions of cells.
(§2) 1. Before starting the experiment, the cell plating (CP) reagent stored at −80° C. was dissolved in a 37° C. water bath.
(§3) 2. When the CP reagent was dissolved, cell vials for TrkB or TrkC were prepared to be dissolved.
(§4) 3. Two U2OS cell vials (TrkB kit & TrkC kit) stored in liquid nitrogen were thawed.
(§5) 4. 500 μL of CP reagent was added to the thawed cell vial, and the cells were sufficiently mixed by pipetting and transferred to a Conical tube in which 11.5 mL of CP reagent was dispensed.
(§6) 5. 12 mL cells (1×10^6 cells in CP reagent) were seeded on a 96-well tissue culture treated plate (100 μL/well), followed by culture in a 37° C., 5% CO2 humidified incubator for 24 hours or 48 hours.
(§7) Day 2 or Day 3: Treatment of Test Material
(§8) 1. Test material, agonist and antagonist were prepared as stock solutions according to the experiment design. • Test material: 10 mM Stock solution in DMSO • Antagonist (GNF-5837): 10 mM Stock solution in 1.8674 mL DMSO • Agonist: TrkB agonist→BDNF, TrkC agonist→NT-3
(§9) 2. 10 mM stock solutions of teat material and antagonist having the concentration of 22 times more concentrated than the final screening concentration were prepared according to the experiment design.
(§10) 3. Each well of the 96-well culture plate containing cells was treated with 5 μL of the solutions of teat material and antagonist having the concentration of 22 times more concentrated than the final screening concentration (#2), followed by incubation at 37° C. for 60 minutes.
(§11) 4. During the incubation, 10 μg/mL stock solution of each agonist for TrkB and TrkC was prepared using a reconstitution buffer for the purpose of the experiment, and each well of the plate was treated with 5 μL of the prepared solution, followed by incubation at 19-25° C. for 3 hours.
(§12) 5. During the incubation, a detection reagent working solution (4.75 ml Cell assay buffer, 1.25 ml Substrate Reagent 1, 0.25 ml Substrate Reagent 2) was prepared. Upon completion of the incubation, 55 μL of the working solution was added into each well of the plate.
(§13) 7. The plate was incubated at room temperature for 60 minutes in a dark place, and the […] was measured with a luminescence plate reader.

TrkC = biological target: T3, TrkC (Homo sapiens, UniProt Q16288); assay: PathHunter eXpress TrkC functional assay kit (U2OS cells, agonist NT-3); assay type: cell-based; settings: for inhibition at 1 µM: compound 1 μM, read-out: TrkC % inhibition rate (based on 1 μM)
T3 construct: host or cells: U2OS
Method: as §1, §2, §3, §4, §5, §6, §7, §8, §9, §10, §11, §12, §13

[1] = test system: postoperative pain animal model; assay: Pharmacological activity in postoperative pain model (von-Frey mechanical allodynia, 50% withdrawal threshold); assay type: in vivo, Sprague-Dawley male rats; settings: oral, rat postoperative pain model, 2 days after surgery; for ED50: 48 h, read-out: ED50
Method: Sprague-Dawley male rats weighing around 150 g (Orient bio., Korea) were used. Rats were raised in an environment where a 12-hour light-dark cycle was maintained, 4 per transparent plastic cage covered with scob as bedding. Food and water were provided freely. To verify the analgesic effect of the example compounds, all rats were anesthetized with O2 delivered from the induction chamber at a ratio of 3:3 of isoflurane and operated. Anesthetized rats were placed on a 37° C. warm plate to prevent hypothermia during the operation. The ipsilateral sole (left) of the hind paw of the experimental animal was disinfected with 10% povidone-iodine solution, and incised to a length of 1 cm with a #11 surgical knife. The incision was made starting from 0.5 cm of the proximal edge of the heel through the skin and fascia on the side of the ipsilateral sole toward the toe. After the incision, a gentle pressure was applied to the incision site to stop the bleeding and the skin was sutured. The surgical site was sterilized with 10% povidone-iodine solution, and gentamicin (8 mg/kg) was administered intraperitoneally to prevent infection. The analgesic effect of the compound on postoperative pain was evaluated in the experimental animals 2 days after the surgery. […] The formula for calculating the 50% withdrawal threshold (g) is as follows. 50% Withdrawal threshold (g)=(10^(x+kd))/10^4 [Mathematical Formula 1] • x=the value of the last tested filament (log unit value). • k=the value indicating positive/negative reaction by up-down method. • d=the value fixed at 0.224 as the average difference between stimuli.

T3 sequence (Q16288 32-839): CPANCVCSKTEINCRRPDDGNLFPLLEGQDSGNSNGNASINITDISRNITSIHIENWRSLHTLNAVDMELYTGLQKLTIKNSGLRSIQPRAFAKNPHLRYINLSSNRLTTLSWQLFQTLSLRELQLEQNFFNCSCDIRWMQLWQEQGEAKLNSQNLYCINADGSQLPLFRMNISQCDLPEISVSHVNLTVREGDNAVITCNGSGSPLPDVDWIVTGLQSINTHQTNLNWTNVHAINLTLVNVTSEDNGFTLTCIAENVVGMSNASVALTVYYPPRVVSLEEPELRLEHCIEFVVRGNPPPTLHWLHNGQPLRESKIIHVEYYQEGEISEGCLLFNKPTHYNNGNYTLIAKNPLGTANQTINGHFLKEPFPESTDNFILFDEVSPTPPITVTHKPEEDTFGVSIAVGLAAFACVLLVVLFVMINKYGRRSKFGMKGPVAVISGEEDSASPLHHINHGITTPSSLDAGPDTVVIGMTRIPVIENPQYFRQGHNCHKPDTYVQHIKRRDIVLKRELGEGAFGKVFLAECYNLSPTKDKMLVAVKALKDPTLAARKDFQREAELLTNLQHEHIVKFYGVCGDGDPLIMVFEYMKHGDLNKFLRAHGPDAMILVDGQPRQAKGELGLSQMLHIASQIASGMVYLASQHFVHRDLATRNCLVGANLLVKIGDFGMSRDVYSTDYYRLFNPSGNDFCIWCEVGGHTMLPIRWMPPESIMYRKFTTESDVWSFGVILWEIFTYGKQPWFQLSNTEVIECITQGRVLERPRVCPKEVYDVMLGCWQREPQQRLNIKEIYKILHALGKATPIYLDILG
T1 sequence (P04629 33-796): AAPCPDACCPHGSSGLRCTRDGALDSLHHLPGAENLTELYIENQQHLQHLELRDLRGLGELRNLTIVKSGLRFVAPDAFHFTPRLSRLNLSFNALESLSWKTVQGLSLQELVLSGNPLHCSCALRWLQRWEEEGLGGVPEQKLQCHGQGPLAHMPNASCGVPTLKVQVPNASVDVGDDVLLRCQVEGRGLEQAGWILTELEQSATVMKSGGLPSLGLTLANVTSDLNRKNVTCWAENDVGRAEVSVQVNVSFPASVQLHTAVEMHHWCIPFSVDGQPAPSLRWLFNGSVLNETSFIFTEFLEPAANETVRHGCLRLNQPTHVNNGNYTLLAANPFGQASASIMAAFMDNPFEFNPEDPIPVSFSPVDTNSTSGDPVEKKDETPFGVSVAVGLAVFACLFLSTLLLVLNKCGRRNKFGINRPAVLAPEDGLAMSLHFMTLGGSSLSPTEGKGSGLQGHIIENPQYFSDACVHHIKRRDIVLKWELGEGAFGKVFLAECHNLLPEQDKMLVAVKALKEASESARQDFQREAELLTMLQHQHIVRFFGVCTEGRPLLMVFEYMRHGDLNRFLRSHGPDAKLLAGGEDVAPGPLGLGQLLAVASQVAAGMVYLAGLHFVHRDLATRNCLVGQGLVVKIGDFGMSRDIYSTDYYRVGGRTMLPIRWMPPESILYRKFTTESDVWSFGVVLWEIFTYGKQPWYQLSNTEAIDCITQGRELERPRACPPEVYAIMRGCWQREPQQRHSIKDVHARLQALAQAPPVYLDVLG
T2 sequence (Q16620 32-822): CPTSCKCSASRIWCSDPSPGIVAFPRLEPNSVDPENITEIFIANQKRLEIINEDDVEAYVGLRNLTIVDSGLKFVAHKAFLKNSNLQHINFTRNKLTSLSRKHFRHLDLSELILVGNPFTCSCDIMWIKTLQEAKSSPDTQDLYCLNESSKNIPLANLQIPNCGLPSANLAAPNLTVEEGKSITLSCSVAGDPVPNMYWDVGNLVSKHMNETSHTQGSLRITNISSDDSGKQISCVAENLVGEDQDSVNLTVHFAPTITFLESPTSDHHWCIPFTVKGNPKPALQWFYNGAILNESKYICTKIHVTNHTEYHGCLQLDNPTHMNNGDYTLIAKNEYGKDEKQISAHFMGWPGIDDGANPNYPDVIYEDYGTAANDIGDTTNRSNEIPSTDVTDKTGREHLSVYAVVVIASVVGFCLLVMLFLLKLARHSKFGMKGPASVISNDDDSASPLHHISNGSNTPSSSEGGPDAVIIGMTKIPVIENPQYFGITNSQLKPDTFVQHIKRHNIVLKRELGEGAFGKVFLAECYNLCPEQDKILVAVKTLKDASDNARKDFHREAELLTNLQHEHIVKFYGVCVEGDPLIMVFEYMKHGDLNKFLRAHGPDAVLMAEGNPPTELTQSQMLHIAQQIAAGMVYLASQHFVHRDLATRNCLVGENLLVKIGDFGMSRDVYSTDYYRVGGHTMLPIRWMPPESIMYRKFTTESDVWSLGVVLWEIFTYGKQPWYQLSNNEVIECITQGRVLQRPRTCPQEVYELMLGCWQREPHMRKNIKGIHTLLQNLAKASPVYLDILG

IC50 (TrkA)	inhibition at 1 µM (TrkA)	inhibition at 1 µM (TrkB)	inhibition at 1 µM (TrkC)	IC50 (TrkC)	SMILES	ED50 [1]	Maximum duration of drug efficacy [1]
122 nM	101%	-8%	-20%	–	CN1CCN(c2ccc(C(=O)Nc3n[nH]c4ncc(Br)cc34)cc2)CC1 [Example 14, N-(5-bromo-1H-pyrazolo[3,4-b]pyridine-3-yl)-4-(4-methylpiperazine-1-yl)benzamide]	3.8 mg/kg	0.5 h
213 nM	98%	27%	49%	1070 nM	CN1CCN(c2ccc(C(=O)Nc3n[nH]c4ncc(-c5ccccc5)cc34)cc2)CC1 [Example 10, 4-(4-methylpiperazine-1-yl)-N-(5-phenyl-1H-pyrazolo[3,4-b]pyridine-3-yl)benzamide]	3.8 mg/kg	0.5 h
179 nM	99%	-1%	0%	–	CN1CCN(c2ccc(C(=O)Nc3n[nH]c4ncc(-c5ccncc5)cc34)cc2)CC1 [Example 13, 4-(4-methylpiperazine-1-yl)-N-(5-(pyridine-4-yl)-1H-pyrazolo[3,4-b]pyridine-3-yl)benzamide]	11.5 mg/kg	1.0 h
–	95%	4%	-16%	–	Oc1c(Cl)cc(-c2c[nH]c3ncnc(-c4cnn(C5CCNCC5)c4)c23)cc1Cl [Example 15, 2,6-dichloro-4-(4-(1-(piperidine-4-yl)-1H-pyrazole-4-yl)-7H-pyrrolo[2,3-d]pyrimidine-5-yl)phenol]	20.1 mg/kg	0.5 h
